# According to paper PMC3910101 (International journal of cancer. Journal international du …, 2012):
# pKd: −log10 of the molar value.
# Target: Hsp90
# Experiment: SPR
# Format: binding, Homo sapiens
structure (smiles),measurement,value
CC(C)=CCCC1(C)C=Cc2c(c(C)cc3c2[nH]c2cc(O)ccc23)O1 (stereo not shown) [mahanine],pKd,5.30
